Results taken from patent publication US5171838A, “Leu3a binding peptides” (Kureha Kagaku Kogyo Kabushiki Kaisha, priority 1990, dated 1992).
Entries after “also recorded” stand apart in the source; their conditions may differ. Where a SMILES comes first, the peptide text is derived from it. Where no end group is shown, it is not given here. [ ]: non-standard residue; d: D form.

Target: Leu3a binding to CD4
Experiment: Leu3a competitive immunoassay (inhibition of biotinylated Leu3a binding to immobilized CD4 membrane fraction)
Parameters: species or system human
Conditions: for IC50 μg/well: D-amino acid-substituted CD4 (49-63); for IC50 μg/well / IC50 /µg/well: peptide amount per well inhibiting Leu3a binding by 50%; for inhibition of Leu3a binding to CD4 (in words): CD4 from MOLT4 cells; for IC50 /µg/well: CD4 fragment peptides, membrane fraction of MOLT4 or CCRF-CEM cells as CD4 source, unit of the source corrected
Experimental: Then, aliquots of solutions containing labeled Leu3a and the peptide to be tested are added. […] After a suitable period of incubation, the solid matrix is washed to remove unbound components and the labeled Leu3a bound is quantitated. In general, any of a number of conventionally labeled Leu3a preparations may be used, including radioactively labeled or enzyme-labeled Leu3a. However, a biotinylated Leu3a used in conjunction with an appropriate secondary reagent such as a complex of avidin-biotin-horseradish peroxidase is preferred. This secondary reagent specifically binds to the biotinylated Leu3a. A chromogenic substrate is added to the complex, enabling one to measure the amount of Leu3a bound as a function of absorbance.
Two million cells, suspended in 2 ml of 40 mM HEPES (4-(2-hydroxyethyl)-1-piperazine ethanesulfonic acid) buffer (pH 7.4) containing 1 mM EGTA (ethylene-bis-(oxyethylene-nitrilo)-tetraacetic acid), 1 mM PMSF (phenylmethylsulfonylfluoride), 1,000 KIU/ml aprotinin and 150 mM sodium chloride, were lysed by two (2) successive 15 second cycles of ultrasonication and centrifuged at 100×g for five (5) minutes. The supernatant was collected and centrifuged at 15,000×g for ten minutes. The precipitate was resuspended in 1 ml of 50 mM sodium bicarbonate buffer, ultrasonicated by three (3) successive 15 second cycles, and mixed with 1 ml of 50 mM sodium bicarbonate buffer to obtain the cellular membrane suspension. Then, 50 μl of the membrane suspension was added to each well of a 96 well microtiter plate. After overnight incubation at 4° C., the buffer was removed and the adsorbed membrane fraction was fixed by addition of 50 μl of 10 mM PBS (phosphate buffered saline) containing 0.2% glutaraldehyde. After three (3) minutes at room temperature, the glutaraldehyde buffer was removed and the plates were washed five times with PBS. Then, 350 μl of PBS containing 2% bovine serum albumin (BSA) was added to each well to block subsequently added proteins from binding non-specifically to the plastic. After blocking at room temperature for one (1) hour, the blocking buffer was removed and the plates were washed five times with 0.2% BSA solution in PBS (BPBS).
The following dilutions of each peptide in BPBS--were prepared: 10 μg/ml; 20 μg/ml; 40 μg/ml; 100 μg/ml; 200 μg/ml, 400 μg/ml; 1 mg/ml and 2 mg/ml. A 50 μl aliquot of each dilution of a selected peptide was added to a well of a microtiter plate, together with 25 μl of a solution containing 600 ng/ml biotin-conjugated Leu3a (Becton Dickinson Immunocytometry Systems) in BPBS so that each well contained either 0.5, 1, 2, 5, 10, 20, 50 or 100 μg of peptide in a total volume of 75 μl. After overnight incubation at 4° C., the reaction mixture was removed and the plates were washed eight times with BPBS containing 0.05% Tween 20.
A solution containing a complex of avidin DH (reagent A) and biotinylated horseradish peroxidase H (reagent B) was prepared by adding 90 μl of reagent A and 90 μl of reagent B (ABC Kit:Vector Laboratories, Inc.) to 5 ml of BPBS containing 0.05% Tween 20.
Then, 50 μl of the enzyme complex solution was added to each well, and the plates were incubated at room temperature for four (4) hours. The reaction buffer was removed and the plates were washed eight times with 20 mM imidazole buffered saline containing 0.02% Tween 20. Equal volumes of substrate solution A (ABTS; 2,2'-azino-di[3-ethyl-benzthiazoline sulfonate]) and substrate solution B (hydrogen peroxide) (Hybri-Clonal™ EIA Screening Kit: Kirkegaard & Perry Laboratories, Inc.) were mixed, and 100 μl of the substrate solution mixture was added to each well. After incubation at room temperature for one (1) hour, absorbance at 405 nm was measured by microplate reader model MPR-A4 (Tosoh Co., Ltd.).
Leu3a binding, as measured by absorbance, was calculated and plotted against peptide concentration to obtain a competitive inhibition curve.

CC(C)C[C@H](NC(=O)[C@H](CO)NC(=O)[C@H](CCCNC(=N)N)NC(=O)[C@@H](CCCNC(=N)N)NC(=O)[C@H](CO)NC(=O)[C@H](CC(=O)O)NC(=O)[C@@H](C)NC(=O)[C@H](CCCNC(=N)N)NC(=O)[C@H](CC(=O)O)NC(=O)[C@H](CC(N)=O)NC(=O)[C@H](CC(C)C)NC(=O)[C@H](CCCCN)NC(=O)[C@@H](N)CO)C(=O)N[C@@H](Cc1c[nH]c2ccccc12)C(=O)N[C@@H](CC(=O)O)C(=O)O [[D-Ala^55,D-Arg^58]-CD4(49-63)] (H-SKLNDR[dA]DS[dR]RSLWD-OH)
IC50 μg/well: 36 μg/well

CC(C)C[C@H](NC(=O)[C@H](CCCCN)NC(=O)[C@@H](N)CO)C(=O)N[C@@H](CC(N)=O)C(=O)N[C@@H](CC(=O)O)C(=O)N[C@@H](CCCNC(=N)N)C(=O)N[C@H](C)C(=O)N[C@@H](CC(=O)O)C(=O)N[C@@H](CO)C(=O)N[C@@H](CCCNC(=N)N)C(=O)N[C@H](CCCNC(=N)N)C(=O)N[C@@H](CO)C(=O)N[C@@H](CC(C)C)C(=O)N[C@@H](Cc1c[nH]c2ccccc12)C(=O)N[C@@H](CC(=O)O)C(=O)O [[D-Ala^55,D-Arg^59]-CD4(49-63)] (H-SKLNDR[dA]DSR[dR]SLWD-OH)
IC50 μg/well: 23 μg/well

CC(C)C[C@H](NC(=O)[C@H](CO)NC(=O)[C@H](CCCNC(=N)N)NC(=O)[C@H](CCCNC(=N)N)NC(=O)[C@@H](CO)NC(=O)[C@H](CC(=O)O)NC(=O)[C@@H](C)NC(=O)[C@H](CCCNC(=N)N)NC(=O)[C@H](CC(=O)O)NC(=O)[C@H](CC(N)=O)NC(=O)[C@H](CC(C)C)NC(=O)[C@H](CCCCN)NC(=O)[C@@H](N)CO)C(=O)N[C@@H](Cc1c[nH]c2ccccc12)C(=O)N[C@@H](CC(=O)O)C(=O)O [[D-Ala^55,D-Ser^57]-CD4(49-63)] (H-SKLNDR[dA]D[dS]RRSLWD-OH)
IC50 μg/well: 10 μg/well

CC(C)C[C@H](NC(=O)[C@H](CO)NC(=O)[C@H](CCCNC(=N)N)NC(=O)[C@H](CCCNC(=N)N)NC(=O)[C@H](CO)NC(=O)[C@H](CC(=O)O)NC(=O)[C@@H](C)NC(=O)[C@H](CCCNC(=N)N)NC(=O)[C@H](CC(=O)O)NC(=O)[C@H](CC(N)=O)NC(=O)[C@H](CC(C)C)NC(=O)[C@H](CCCCN)NC(=O)[C@@H](N)CO)C(=O)N[C@@H](Cc1c[nH]c2ccccc12)C(=O)N[C@@H](CC(=O)O)C(=O)O [[D-Ala^55]-CD4(49-63)] (H-SKLNDR[dA]DSRRSLWD-OH)
IC50 μg/well: 32 μg/well

CC(C)C[C@H](NC(=O)[C@H](CO)NC(=O)[C@H](CCCNC(=N)N)NC(=O)[C@H](CCCNC(=N)N)NC(=O)[C@H](CO)NC(=O)[C@H](CC(=O)O)NC(=O)[C@@H](C)NC(=O)[C@H](CCCNC(=N)N)NC(=O)[C@H](CC(=O)O)NC(=O)[C@@H](CC(N)=O)NC(=O)[C@H](CC(C)C)NC(=O)[C@H](CCCCN)NC(=O)[C@@H](N)CO)C(=O)N[C@@H](Cc1c[nH]c2ccccc12)C(=O)N[C@@H](CC(=O)O)C(=O)O [[D-Asn^52,D-Ala^55]-CD4(49-63)] (H-SKL[dN]DR[dA]DSRRSLWD-OH)
IC50 μg/well: 60 μg/well

CC(C)C[C@H](NC(=O)[C@H](CO)NC(=O)[C@H](CCCNC(=N)N)NC(=O)[C@H](CCCNC(=N)N)NC(=O)[C@H](CO)NC(=O)[C@@H](CC(=O)O)NC(=O)[C@H](C)NC(=O)[C@H](CCCNC(=N)N)NC(=O)[C@H](CC(=O)O)NC(=O)[C@H](CC(N)=O)NC(=O)[C@H](CC(C)C)NC(=O)[C@H](CCCCN)NC(=O)[C@@H](N)CO)C(=O)N[C@@H](Cc1c[nH]c2ccccc12)C(=O)N[C@@H](CC(=O)O)C(=O)O [[D-Asp^56]-CD4(49-63)] (H-SKLNDRA[dD]SRRSLWD-OH)
IC50 μg/well: 56 μg/well

CC(C)C[C@H](NC(=O)[C@H](CO)NC(=O)[C@@H](CCCNC(=N)N)NC(=O)[C@H](CCCNC(=N)N)NC(=O)[C@H](CO)NC(=O)[C@H](CC(=O)O)NC(=O)[C@@H](C)NC(=O)[C@H](CCCNC(=N)N)NC(=O)[C@H](CC(=O)O)NC(=O)[C@H](CC(N)=O)NC(=O)[C@H](CC(C)C)NC(=O)[C@@H](CCCCN)NC(=O)[C@@H](N)CO)C(=O)N[C@@H](Cc1c[nH]c2ccccc12)C(=O)N[C@@H](CC(=O)O)C(=O)O [[D-Lys^50,D-Ala^55,D-Arg^59]-CD4(49-63)] (H-S[dK]LNDR[dA]DSR[dR]SLWD-OH)
inhibition of Leu3a binding to CD4 (in words): exhibited inhibitory activity | IC50 μg/well: 25 μg/well

CC(C)C[C@H](NC(=O)[C@@H](CCCCN)NC(=O)[C@@H](N)CO)C(=O)N[C@@H](CC(N)=O)C(=O)N[C@@H](CC(=O)O)C(=O)N[C@@H](CCCNC(=N)N)C(=O)N[C@H](C)C(=O)N[C@@H](CC(=O)O)C(=O)N[C@@H](CO)C(=O)N[C@@H](CCCNC(=N)N)C(=O)N[C@@H](CCCNC(=N)N)C(=O)N[C@@H](CO)C(=O)N[C@H](CC(C)C)C(=O)N[C@@H](Cc1c[nH]c2ccccc12)C(=O)N[C@@H](CC(=O)O)C(=O)O [[D-Lys^50,D-Ala^55,D-Leu^61]-CD4(49-63)] (H-S[dK]LNDR[dA]DSRRS[dL]WD-OH)
IC50 μg/well: 22 μg/well

CC(C)C[C@H](NC(=O)[C@H](CO)NC(=O)[C@H](CCCNC(=N)N)NC(=O)[C@H](CCCNC(=N)N)NC(=O)[C@H](CO)NC(=O)[C@H](CC(=O)O)NC(=O)[C@@H](C)NC(=O)[C@H](CCCNC(=N)N)NC(=O)[C@H](CC(=O)O)NC(=O)[C@H](CC(N)=O)NC(=O)[C@H](CC(C)C)NC(=O)[C@@H](CCCCN)NC(=O)[C@@H](N)CO)C(=O)N[C@@H](Cc1c[nH]c2ccccc12)C(=O)N[C@@H](CC(=O)O)C(=O)O [[D-Lys^50,D-Ala^55]-CD4(49-63)] (H-S[dK]LNDR[dA]DSRRSLWD-OH)
IC50 μg/well: 36 μg/well

KLNDRADSRRSLWD [CD4 (50-63)]
IC50 /µg/well: > 500 µg/well | inhibition of Leu3a binding to CD4 (in words): very weak inhibiting activity

KNSNQIKILGNQGSFLTKG [CD4 (29-47)]
IC50 /µg/well: 500 µg/well

SKLNDRADSRRSLW [CD4 (49-62)]
IC50 /µg/well: > 500 µg/well | inhibition of Leu3a binding to CD4 (in words): very weak inhibiting activity

SKLNDRADSRRSLWD [CD4 (49-63), ser-lys-leu-asn-asp-arg-ala-asp-ser-arg-arg-ser-leu-trp-asp]
IC50 /µg/well: 10 µg/well | inhibition of Leu3a binding to CD4 (in words): strongly inhibited; also recorded: exceptionally strong inhibitory activity
